The data set is described as follows: gradient 5% acetonitrile 3 min, to 50% in 2 min, to 85% in 15 min, held 3 min, 100 µL/min. Particulars: column: Zorbax Extend-C18 2.1 x 50 mm; eluents: water / acetonitrile, 0.1% formic acid. In outline: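 The mobile phases were water and acetonitrile, each with 0.1% formic acid, pumped at 100 μL/min through a Zorbax Extend-C18 column (2.1 × 50 mm, 1.8 μm). Pure standards were injected as mixtures of ~100 molecules and detected by a quadrupole time-of-flight mass spectrometer in positive and negative ionization mode. Retention time came from computationally picked adduct peaks, each inspected by hand.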
For `COc1ccc2nc(C(=O)N3CCN(c4ccc(F)cc4)CC3)cn2n1`, the RP-LC retention time was determined as 731 s.
Under `Cc1ccc2nc(NC(=O)C3CCN(S(=O)(=O)c4ccc5[nH]c(=O)ccc5c4)CC3)sc2c1` stands 814 s; under `O=C(NC1CCCCCCC1)C1CCCN(C(=O)Cc2cccc3ccccc23)C1` (stereo not given), 1060 s; under `CCc1nc(-n2cccc2)sc1C(=O)Nc1cccc(F)c1`, 1170 s.
To `CCN1CCC(N(Cc2cccs2)C(=O)Nc2cc(OC)cc(OC)c2)CC1` belongs 651 s.
The compound `CCc1nn2c(CNC(=O)c3cccc(F)c3)c(-c3ccccc3)nc2s1` returned an RP-LC retention time of 909 s.
Consider `COc1ccc(OC)c(CNC(=O)CN2C(=O)C(C)(C)c3cc(C)ccc32)c1`, for which the RP-LC retention time is 689 s.
To `CCCC(=O)N1CCCN(C2=NS(=O)(=O)C(c3ccc(C)cc3)=C2C)CC1` belongs 797 s; to `O=C(NCc1ccccc1)C1CCN(c2ccc(SCc3ccccc3)nn2)CC1`, 761 s; to `Cc1ccc(C)c(CN2CCC(CNC(=O)C3CCN(c4cc(=O)n(C)c(=O)n4C)CC3)CC2)c1`, 618 s.
Under `O=C(Cn1cnc2nc(N3CCC(C(=O)NC4CC4)CC3)sc2c1=O)NCc1ccco1` stands 610 s.
Under `Cc1ccc(-c2csc(NC(=O)c3ccc4c(c3)OCO4)n2)cc1C` stands 1100 s; under `COc1cc(NC(=O)N2CCN(c3cc(-c4cccc(OC)c4)ncn3)CC2)cc(OC)c1`, 620 s; under `Cc1nc(-c2cc(S(=O)(=O)Nc3ccc(F)c(F)c3)c(C)s2)sc1C`, 1100 s.
Consider `Cc1ccc(Nc2nc(C)cc(N3CCN(S(=O)(=O)c4cc(F)ccc4C)CC3)n2)cc1`, for which the RP-LC retention time was 823 s.
To `O=c1c2ccccc2ncn1Cc1noc(Cc2ccc(Cl)cc2)n1` belongs 872 s.
To `COc1cccc(NC(=O)Cn2nc3cc(C)nc(Nc4ccc(C)c(C)c4)n3c2=O)c1` belongs 1100 s; to `CCOc1ccccc1NC(=O)CN1CCC(c2nnc(-c3ccco3)s2)CC1`, 594 s; to `Cc1nc(-c2cccc(C(=O)NC(C)C)c2)no1`, 596 s.
To `Cc1ccc(C)c(N2CCN(C(=O)c3ccc4c(c3)NC(=O)C3CCCCN43)CC2)c1` (stereo not given) belongs 1050 s; to `CCn1c(=O)n(CC)c2cc(N3CCCC3)c(NC(=O)NCc3ccc(F)cc3)cc21`, 648 s.
Regarding `O=C(c1c(F)cccc1Cl)N1CCN(S(=O)(=O)c2cc3c4c(c2)CCC(=O)N4CCC3)CC1`, the RP-LC retention time is 828 s.
To `Cc1nc(-n2cccc2)sc1C(=O)NCCn1nc(-c2ccco2)ccc1=O` belongs 710 s.
Under `O=C1C2CC3N1CCC31c3ccccc3-n3c1c2ccc3=O` (stereo not given) stands 721 s; under `CCOC(=O)CC1(NC(=O)NCC(=O)N2CCc3ccccc32)CCCCC1`, 885 s; under `Cc1c(Cl)cccc1NC(=O)NCC(c1cccnc1)c1c[nH]c2ccccc12` (stereo not given), 706 s.
`CCCNc1cc(N2CCCC(CCC(=O)N3CCC(COC)CC3)C2)ncn1` (stereo not given) yielded an RP-LC retention time of 649 s.
The compound `CCn1ccc2c(cc(C(=O)Nc3ccc(C)cc3)n2C)c1=O` returned an RP-LC retention time of 769 s.
Under `Cc1c(C(=O)O)nnn1-c1ccc(F)c(Cl)c1` stands 726 s; under `Cc1ccc2c(C(=O)NCC(C)C)cc(NC(=O)C3CCC3)cc2n1`, 613 s.
To `COc1ccc(C(=O)NC2CCN(c3cc(-c4cccs4)[nH]n3)C2)cn1` (stereo not given) belongs 676 s; to `CC(NC(=O)c1ccc(-c2cccs2)nc1)c1ccccc1` (stereo not given), 910 s; to `Cc1c(Cl)cccc1NC(=O)NCC1(N2CCOCC2)CCOC1` (stereo not given), 614 s.
`CC(=O)N1CCC(C(=O)N(C)C2CCc3nn(C)c(=O)n3CC2)CC1` (stereo not given) yielded an RP-LC retention time of 569 s.
To `COC1CCC12CCN(Cc1ccccc1C#N)CC2` (stereo not given) belongs 603 s; to `COc1ccc2[nH]c(=O)c(CCC(=O)NCCCN3CCCCC3C)cc2c1` (stereo not given), 589 s.
Under `CCOC(=O)CCC(=O)N(Cc1ccsc1)CC(F)(F)F` stands 839 s; under `CCCN1C(=O)C2(c3ccccc31)c1[nH]c3ccccc3c1CCN2C(=O)NCC` (stereo not given), 793 s; under `Cc1ccc(NC(=O)C(=O)c2ccc[nH]2)cc1`, 894 s.
Turning to `CSc1ccc(-c2nc3ccccn3c2Nc2ccc3c(c2)OCO3)cc1`, the RP-LC retention time was found to be 711 s.
To `Cc1cccc2nnc(N3CCN(C(=O)c4ccc(C(F)(F)F)cc4)CC3)n12` belongs 716 s; to `Cc1nnc(N2CCCC(C(=O)NCc3ccc(OC(C)C)cc3)C2)c2nn(-c3ccccc3)c(C)c12` (stereo not given), 764 s.
Under `CCOC(=O)C(C)(C)Sc1nnc(NC(=O)C2CCN(S(C)(=O)=O)CC2)s1` stands 721 s.
With `Cn1c(=O)c2c(nc(N3CCOCC3)n2C)n(C)c1=O`, the RP-LC retention time came to 663 s.
Under `N#Cc1cccc(-c2cn3c(n2)N(C(=O)c2cccc(F)c2)CCC3)c1` stands 749 s.
To `NC(=O)C1CCCN(c2cccc3c2C(=O)c2ccccc2C3=O)C1` (stereo not given) belongs 652 s; to `Cc1nc(N2CCCC2)c2c(C(=O)Nc3cccc(Cl)c3)c(C)oc2n1`, 852 s; to `CC(C)n1cc(S(=O)(=O)NCc2ccc(C(F)(F)F)cc2)c2cccnc21`, 974 s.
Under `CCOc1ccc(C(=O)n2nc(C)c(S(=O)(=O)N3CCCC3)c2C)cc1` stands 1130 s; under `Cn1nnc2ccc(-c3noc(-c4ccccc4F)n3)cc21`, 876 s; under `CCN(CC)CCNC(=O)CCc1cc2ccc(C)cc2[nH]c1=O`, 591 s.
On to `COc1ccc(C)cc1NC(=O)c1cc(C)n2nccc2n1`, for which the RP-LC retention time came to 1050 s.
To `COc1ccc(NC(=O)C2CCN(S(=O)(=O)c3ccc4c(c3)sc(=O)n4C)CC2)cc1` belongs 817 s; to `Cc1ccccc1Cn1cc(-c2ccncc2)cc1C(=O)NCc1cccnc1`, 581 s; to `Cc1ccc(OCc2nnc(SCC(=O)Nc3nc(-c4ccccc4)c(C)s3)o2)cc1`, 1090 s.
To `CCOc1ccc2c(n1)CCN(C(=O)Nc1cc(C)ccc1C)C2` belongs 862 s.
`O=[N+]([O-])c1cccc(C2Oc3ccccc3C3CC(c4cccnc4)=NN32)c1` (stereo not given) had an RP-LC retention time of 790 s.
Under `Cc1ccc(C)c(CN2C(=O)NC3(CCN(C(=O)c4ccsc4)CC3)C2=O)c1` stands 827 s; under `Cc1nc(-c2csc(S(=O)(=O)N3CCCC(C(=O)N(C)Cc4ccccc4)C3)c2)no1` (stereo not given), 939 s.
To `COc1ccc(-c2noc(Cc3nnc(-c4cccc(C)c4)o3)n2)cc1OC` belongs 945 s.
Under `CCN1c2cc(Cl)ccc2C(=O)NC12CCN(C(=O)Nc1ccccc1OC)CC2` stands 858 s; under `Cc1ccc(-c2ncc(C(=O)NCCC3=CCCCC3)c(-c3ccncc3)n2)cc1`, 1050 s; under `O=C(Nc1nc(-c2ccccc2)cs1)c1ccncc1`, 734 s.
Compound `COc1ccccc1-c1noc(C2CCCN2C(=O)Nc2cccc(C#N)c2)n1` (stereo not given) registered an RP-LC retention time of 823 s.
Under `COCCC1CCN(C(=O)c2cc(F)ccc2F)CC1` stands 749 s.
To `Cc1nc(-c2cn(C(C)C)c3ncccc23)sc1C(=O)NCc1ccc2c(c1)OCO2` belongs 980 s; to `CCCNC(=O)N1CCc2c(c(-c3nc(Cc4ccccc4)no3)nn2C)C1`, 780 s.
Under `Cc1cccc(S(=O)(=O)Nc2ccc(-c3cn4cccc(C)c4n3)cc2)c1` stands 659 s; under `CCN1C(=O)C(CC(=O)NCCOC)Sc2ncccc21` (stereo not given), 593 s; under `COc1cc2c(cc1CNC(=O)Cn1cc(C#N)c3ccccc31)OCCCO2`, 853 s.
Turning to `O=C(c1ccc2[nH]ccc2c1)N1CCCN(C2CCN(CC3CC3)C2=O)CC1` (stereo not given), the RP-LC retention time came to 888 s.
Under `Cc1ccsc1C(=O)Nc1ccc2c(c1)Sc1ncccc1C(=O)N2C(C)C` stands 886 s; under `Cc1cc(C)nc(NS(=O)(=O)c2ccc(NC(=O)c3ccc(Cl)s3)cc2)n1`, 755 s; under `CCOC(=O)c1cc(S(=O)(=O)N2CCCC2C(=O)NC2CCCCCCC2)cn1C` (stereo not given), 1020 s.
For `Cn1cnc(S(=O)(=O)N2CCCC(c3[nH]ccc3C(N)=O)C2)c1` (stereo not given), the RP-LC retention time was 586 s.
Under `COc1ccc(C2CC(=O)c3cnc(N4CCN(c5ccccn5)CC4)nc3C2)c(OC)c1` (stereo not given) stands 713 s; under `O=C(COc1ccc(F)cc1)Nc1cnc(-c2cccnc2)nc1`, 707 s; under `CC(C)NC(=O)N1CCCC(c2cccc(C(=O)NC(C)c3ccc(F)cc3)c2)C1` (stereo not given), 907 s.
Under `O=S1(=O)CCN(c2ccccc2CC(c2c[nH]c3ccccc23)c2c[nH]c3ccccc23)CC1` stands 964 s; under `COCCN1CCC2(CC1)CN(Cc1cc(C)ccc1C)Cc1ccccc1O2`, 718 s.

Source of the values: the METLIN SMRT retention time set (Domingo-Almenara et al. 2019).
